In paper PMC7355801, “Synthesis, Cyclooxygenases Inhibition Activities and Interactions with BSA of N-substituted 1H-pyrrolo[3,4-c]pyridine-1,3(2H)-diones Derivatives” (Molecules, 2020):

Assays:
[1] = biological target: T1, bovine serum albumin (BSA) (Bos taurus, UniProt P02769); test: intrinsic fluorescence quenching, excitation […] nm; format: binding; settings: 298 K, pH 7.4, no site marker
T1 construct: gene ALB; mature serum albumin, 583 residues, monomer

[2] = biological target: T2, COX-1 (Ovis aries, UniProt P05979); test: colorimetric COX peroxidase inhibition kit, […] nm; format: biochemical; settings: read-out: Cyclooxygenase Inhibition Assay IC50 [μM] / COX-1
T2 construct: gene PTGS1; homodimer
T2 sequence (P05979 25-600): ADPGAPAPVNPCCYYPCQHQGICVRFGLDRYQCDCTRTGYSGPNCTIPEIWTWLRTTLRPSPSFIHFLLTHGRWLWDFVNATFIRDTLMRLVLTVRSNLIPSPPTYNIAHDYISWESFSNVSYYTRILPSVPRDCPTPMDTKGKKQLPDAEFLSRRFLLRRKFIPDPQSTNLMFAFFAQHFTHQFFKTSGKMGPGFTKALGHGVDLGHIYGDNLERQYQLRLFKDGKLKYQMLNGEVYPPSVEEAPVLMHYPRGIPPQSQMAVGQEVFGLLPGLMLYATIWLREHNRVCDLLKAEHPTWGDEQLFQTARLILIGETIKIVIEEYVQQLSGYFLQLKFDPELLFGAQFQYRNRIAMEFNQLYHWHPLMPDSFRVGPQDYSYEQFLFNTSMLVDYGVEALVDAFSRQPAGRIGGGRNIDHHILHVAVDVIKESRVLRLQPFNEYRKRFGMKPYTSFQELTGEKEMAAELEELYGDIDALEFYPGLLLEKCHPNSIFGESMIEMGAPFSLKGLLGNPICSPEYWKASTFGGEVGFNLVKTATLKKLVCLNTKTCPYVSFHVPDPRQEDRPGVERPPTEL

T1 sequence (P02769 25-607): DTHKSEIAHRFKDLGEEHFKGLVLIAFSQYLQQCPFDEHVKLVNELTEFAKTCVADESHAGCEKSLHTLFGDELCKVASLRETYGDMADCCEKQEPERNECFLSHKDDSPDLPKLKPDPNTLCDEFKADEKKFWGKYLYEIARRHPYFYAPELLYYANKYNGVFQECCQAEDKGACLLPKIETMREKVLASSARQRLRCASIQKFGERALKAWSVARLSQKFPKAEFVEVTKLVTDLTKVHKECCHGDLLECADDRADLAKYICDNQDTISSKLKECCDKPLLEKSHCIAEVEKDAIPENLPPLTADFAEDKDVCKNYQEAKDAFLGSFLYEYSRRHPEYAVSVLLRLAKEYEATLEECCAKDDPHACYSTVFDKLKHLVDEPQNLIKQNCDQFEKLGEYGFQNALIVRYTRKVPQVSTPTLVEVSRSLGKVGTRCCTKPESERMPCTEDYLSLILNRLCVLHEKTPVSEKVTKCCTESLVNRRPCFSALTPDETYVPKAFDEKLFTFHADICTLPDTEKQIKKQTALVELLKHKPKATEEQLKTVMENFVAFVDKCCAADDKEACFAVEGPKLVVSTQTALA

Compound | Double log / Kb × 10^3 [dm^3.mol^-1] [1] | IC50 [2] [µM]
COc1ccccc1N1CCN(CN2C(=O)c3cc(C)n(C)c(=O)c3C2=O)CC1 [C] | 11.51 × 10^3 dm^3·mol^−1 | 95.8
COc1nc(C)cc2c1C(=O)N(CCN1CCOCC1)C2=O [E] | 6.24 × 10^3 dm^3·mol^−1 | 99.2
Cc1cc2c(c(=O)n1C)C(=O)N(CN1CCN(c3cccc(C(F)(F)F)c3)CC1)C2=O [B] | 8.32 × 10^3 dm^3·mol^−1 | 93.2
Cc1cc2c(c(=O)n1C)C(=O)N(CN1CCN(c3ccccc3)CC1)C2=O [A, 5,6-dimethyl-4-oxo-2-[(4-phenyl-1-piperazinyl)methyl]-1H-pyrrolo[3.4-c]pyridine-1,3(2H)-dione] | 5.37 × 10^3 dm^3·mol^−1 | 81.6
COc1nc(C)cc2c1C(=O)N(CN1CCCC1)C2=O [D, 4-Methoxy–N-[1-(N-pyrrolidine)-methyl]-6-methyl-1H-pyrrolo[3.4-c]pyridine-1,3(2H)-dione] | 4.82 × 10^3 dm^3·mol^−1 | 76.6
